Results from patent US20060154927A1 (priority 2003, published 2006).
Where two headings read alike, the source gives them in different places.

Tested on: Pyricularia oryzae
Format: in vivo
Conditions: individual active compound, rice seedlings cultivar Tai-Nong 67, protective spray, evaluated 6 days after inoculation

SMILES | Efficacy in % of the untreated control (0.25 ppm in the spray liquor) [%] | Efficacy in % of the untreated control (4 ppm in the spray liquor) [%] | Efficacy in % of the untreated control (1 ppm in the spray liquor) [%]
COc1ccc(C(=CC(=O)N2CCOCC2)c2ccc(F)cc2)cc1OC [IIb, 3-(4-fluorophenyl)-3-(3,4-dimethoxyphenyl)-1-morpholin-4-ylpropenone] | 0 | 0 | 
C[C@H](Nc1c(-c2c(F)cc(F)cc2F)c(Cl)nc2ncnn12)C(F)(F)F [B] |  |  | 22
COc1ccc(C(=CC(=O)N2CCOCC2)c2ccc(Cl)cc2)cc1OC [IIa, 3-(4-chlorophenyl)-3-(3,4-dimethoxyphenyl)-1-morpholin-4-ylpropenone] | 0 | 0 | 
CC1CCN(c2c(-c3c(F)cc(F)cc3F)c(Cl)nc3ncnn23)CC1 [I, 5-chloro-7-(4-methylpiperidin-1-yl)-6-(2,4,6-trifluorophenyl)-[1,2,4]triazolo[1,5-a]pyrimidine] |  |  | 11
CC1CCN(c2c(-c3c(F)cccc3Cl)c(Cl)nc3ncnn23)CC1 [A] |  |  | 11
